From BindingDB's records for doi:10.1021/jm020355o (University of Arizona, 2003)
pIC50: −log10 of the molar value.

Test: Antagonistic activity towards Melanocortin 1 receptor in Xenopus frog skin using competitive binding in the presence of 500 pM of alpha-melanocyte stimulating hormone

| pIC50 | Compound |
| --- | --- |
| 5.00 | CC(C)[C@H](NC(=O)[C@@H]1CCC(=O)NCC(=O)N2CCC[C@H]2C(=O)N[C@H](Cc2ccccc2)C(=O)N[C@@H](CCCN=C(N)N)C(=O)N[C@@H](Cc2c[nH]c3ccccc23)C(=O)N1)C(=O)N[C@H](C(=O)NCC(N)=O)C(C)C [19-Benzyl-16-(3-guanidino-propyl)-13-(1H-indol-3-ylmethyl)-4,7,12,15,18,21-hexaoxo-docosahydro-3a,6,11,14,17,20-hexaaza-cyclopentacycloicosene-10-carboxylic acid {1-[1-(carbamoylmethyl-carbamoyl)-2-methyl-propylcarbamoyl]-2-methyl-propyl}-amide] |
| 6.20 | CC(C)[C@H](NC(=O)[C@@H]1CCC(=O)NCC(=O)N2CCC[C@H]2C(=O)N[C@H](Cc2ccc3ccccc3c2)C(=O)N[C@@H](CCCN=C(N)N)C(=O)N[C@@H](Cc2c[nH]c3ccccc23)C(=O)N1)C(=O)N[C@H](C(=O)NCC(N)=O)C(C)C [c[Gly-Pro-D-Nal(2')-Arg-Trp-Glu]-Val-Val-Gly-NH2] |
| 5.82 | CC(C)[C@H](NC(=O)[C@@H]1CCC(=O)N2CCC[C@H]2C(=O)N[C@H](Cc2ccc3ccccc3c2)C(=O)N[C@@H](CCCN=C(N)N)C(=O)N[C@@H](Cc2c[nH]c3ccccc23)C(=O)N1)C(=O)N[C@H](C(=O)NCC(N)=O)C(C)C [c[Pro-D-Nal(2')-Arg-Trp-Glu]-Val-Val-Gly-NH2] |
